{"source": "PubChem BioAssay AID1259409", "about": "(Chemical Carcinogenesis Research Information System (CCRIS), 2018)", "origin": "cited, not measured here", "tested_on": "rodent chemically induced tumor inhibition, incidence and multiplicity", "assay": "CCRIS tumor inhibitor studies", "note": "“And” between values parts separate entries of the source, which are not always exact repeats. Equal entries are not always repeated.", "data": [{"compound": "NCCCN", "values": [{"measurement": "tumour outcome (control, treated, inhibition, significance)", "setting": "Carcinogen: AZOXYMETHANE, 25843-45-2, Dose [Inhibitor]: 0, 2.5 G/L IN DRINKING WATER AD LIBITUM FOR DURATION OF STUDY (STUDY DURATION: 40 WK), Route [Inhibitor]: ORAL, Species: RAT, Strain/Sex: WISTAR/MALE, Target Tissue: Type of Lesion: INTESTINE: TUMOR, Dose [Carcinogen]: 7.4 MG/KG BW IN 0.9% SALINE 1/WK FOR 10 WK, Promoter: BOMBESIN, 31362-50-2", "value": "20/20 (100%), 11/20 (55%), 45%, p<0.01"}, {"measurement": "tumour outcome (control, treated, inhibition, significance)", "setting": "Carcinogen: AZOXYMETHANE, 25843-45-2, Dose [Inhibitor]: 0, 2.5 G/L IN DRINKING WATER FOR DURATION OF STUDY (STUDY DURATION: 45 WK), Route [Inhibitor]: ORAL, Species: RAT, Strain/Sex: WISTAR/MALE, Target Tissue: Type of Lesion: COLON: TUMOR, Dose [Carcinogen]: 7.4 MG/KG BW IN 0.9% SALINE 1/WK FOR 10 WK, Promoter: VASOACTIVE INTESTINAL PEPTIDE, 37221-79-7", "value": "14/18 (78%), 6/18 (33%), 58%, p<0.02"}, {"measurement": "tumour outcome (control, treated, inhibition, significance)", "setting": "Carcinogen: N-BUTYL-N-(4-HYDROXYBUTYL)NITROSAMINE [3817-11-6], Dose [Inhibitor]: 2 G/L IN DRINKING WATER FOR 32 WK BEGINNING 2 D POST LAST CARCINOGEN DOSE (STUDY DURATION: 36 WK), Route [Inhibitor]: ORAL, Species: RAT, Strain/Sex: F344/MALE, Target Tissue: Type of Lesion: URINARY BLADDER: CARCINOMA, Dose [Carcinogen]: 0.05% IN DRINKING WATER FOR 4 WK (STUDY DURATION: 36 WK), Promoter: NONE", "value": "5/17 (29%), 3/17 (18%), 39%, not significant"}, {"measurement": "tumour outcome (control, treated, inhibition, significance)", "setting": "Carcinogen: N-BUTYL-N-(4-HYDROXYBUTYL)NITROSAMINE [3817-11-6], Dose [Inhibitor]: 2 G/L IN DRINKING WATER FOR 32 WK BEGINNING 2 D POST LAST CARCINOGEN DOSE (STUDY DURATION: 36 WK), Route [Inhibitor]: ORAL, Species: RAT, Strain/Sex: F344/MALE, Target Tissue: Type of Lesion: URINARY BLADDER: CARCINOMA, Dose [Carcinogen]: 0.05% IN DRINKING WATER FOR 4 WK (STUDY DURATION: 36 WK), Promoter: SODIUM L-ASCORBATE [134-03-2]", "value": "15/15 (100%), 18/18 (100%), 0%, not significant"}, {"measurement": "tumour outcome (control, treated, inhibition, significance)", "setting": "Carcinogen: N-BUTYL-N-(4-HYDROXYBUTYL)NITROSAMINE [3817-11-6], Dose [Inhibitor]: 2 G/L IN DRINKING WATER FOR 32 WK BEGINNING 2 D POST LAST CARCINOGEN DOSE (STUDY DURATION: 36 WK), Route [Inhibitor]: ORAL, Species: RAT, Strain/Sex: F344/MALE, Target Tissue: Type of Lesion: URINARY BLADDER: PAPILLOMA, Dose [Carcinogen]: 0.05% IN DRINKING WATER FOR 4 WK (STUDY DURATION: 36 WK), Promoter: SODIUM L-ASCORBATE [134-03-2]", "value": "15/15 (100%), 18/18 (100%), 0%, not significant"}, {"measurement": "tumour outcome (control, treated, inhibition, significance)", "setting": "Carcinogen: N-METHYL-N'-NITRO-N-NITROSOGUANIDINE, 70-25-7, Dose [Inhibitor]: 0, 2.5 G/L IN DRINKING WATER BEGINNING 1 WK POST CARCINOGEN TREATMENT AND CONTINUING FOR DURATION OF STUDY (STUDY DURATI, Route [Inhibitor]: ORAL, Species: RAT, Strain/Sex: WISTAR/MALE, Target Tissue: Type of Lesion: STOMACH: ADENOCARCINOMA, Dose [Carcinogen]: 50 UG/ML IN DRINKING WATER FOR 25 WK, Promoter: BOMBESIN, 31362-50-2", "value": "14/20 (70%), 6/20 (30%), 57%, p<0.05"}, {"measurement": "tumour outcome (control, treated, inhibition, significance)", "setting": "Carcinogen: N-METHYL-N'-NITRO-N-NITROSOGUANIDINE, 70-25-7, Dose [Inhibitor]: 0, 2.5 G/L IN DRINKING WATER FOR 26 WK BEGINNING 1 WK POST CARCINOGEN TREATMENT (STUDY DURATION: 52 WK), Route [Inhibitor]: ORAL, Species: RAT, Strain/Sex: WISTAR/MALE, Target Tissue: Type of Lesion: GLANDULAR STOMACH: ADENOCARCINOMA, Dose [Carcinogen]: 25 UG/ML IN DRINKING WATER FOR 25 WK, Promoter: SODIUM CHLORIDE, 7647-14-5", "value": "14/19 (74%), 6/20 (30%), 59%, p<0.02"}, {"measurement": "tumour outcome (control, treated, inhibition, significance)", "setting": "Carcinogen: N-METHYL-N'-NITRO-N-NITROSOGUANIDINE, 70-25-7, Dose [Inhibitor]: 0, 25 G/L IN DRINKING WATER FOR 26 WK BEGINNING 1/WK POST CARCINOGEN TREATMENT (STUDY DURATION: 52 WK), Route [Inhibitor]: ORAL, Species: RAT, Strain/Sex: WISTAR/MALE, Target Tissue: Type of Lesion: STOMACH: ADENOCARCINOMA, Dose [Carcinogen]: 25 UG/ML IN DRINKING WATER FOR 25 WK, Promoter: TYROSINE METHYL ESTER, 1080-06-4", "value": "15/18 (83%), 8/18 (44%), 47%, p<0.05"}]}, {"compound": "CC(C)(C)c1cc(O)c(O)c(C(C)(C)C)c1", "values": [{"measurement": "tumour outcome (control, treated, inhibition, significance)", "setting": "Carcinogen: BENZO[A]PYRENE, 50-32-8, Dose [Inhibitor]: 0.03 MMOL/G OF DIET DAILY STARTING 7 D BEFORE AND CONTINUING THROUGH 3 D AFTER CARCINOGEN TREATMENT FOLLOWED BY OBSERVAT, Route [Inhibitor]: ORAL, Species: MOUSE, Strain/Sex: ICR/FEMALE, Target Tissue: Type of Lesion: FORESTOMACH: NEOPLASM, Dose [Carcinogen]: 1 MG IN 0.2 ML CORN OIL 2/WK FOR 4 WK, Promoter: NONE USED", "value": "100%, 75%, 25%, p<0.05 and 95%, 74%, 22%, not significant"}]}, {"compound": "ClC(Cl)(Cl)Cl", "values": [{"measurement": "tumour outcome (control, treated, inhibition, significance)", "setting": "Carcinogen: 1,2-DIMETHYLHYDRAZINE, 540-73-8, Dose [Inhibitor]: 0, 1.5 ML/KG BW IN CORN OIL ADMINISTERED 2 HR PRIOR TO EACH CARCINOGEN DOSE (STUDY DURATION: 8 MO), Route [Inhibitor]: GAVAGE, Species: RAT, Strain/Sex: BD6/MALE, Target Tissue: Type of Lesion: INTESTINE: TUMOR, Dose [Carcinogen]: 20 MG/KG BW 1/WK FOR 20 WK, Promoter: NONE USED", "value": "100%, 0%, 100%, not calculated"}]}]}
